{"source": "patent EP0377642B1", "about": "“HERBICIDES FOR WEED CONTROL IN RICE” (E.I. DU PONT DE NEMOURS AND COMPANY, priority 1987, dated 1989)", "assay_type_in_all_cases": "in vivo", "key": {"rice [1]": {"test_system": "rice", "assay": "Herbicidal efficacy in relation to application timing in Indonesia (Table 5)", "settings": "5 WAT", "source_text": "(§1) Methyl 2-[[[[(4-methoxy-6-methyl-1,3,5-triazin-2-yl)amino]carbonyl]amino]sulfonyl]benzoate (Compound 1) and mixtures thereof with other compounds were applied as a spray (using a hand sprayer) to rice (either transplanted or direct seeded) in several rice growing areas in Southeast Asia and in the U.S. Tables 1-28 contain the results of these tests and clearly exemplify the utility of this invention. The details of each application are included in the appropriate table. [drawing 2]"}, "MV": {"test_system": "MV", "assay": "Herbicidal efficacy in relation to application timing in Indonesia (Table 5)", "source_text": "as §1"}, "rice [2]": {"test_system": "rice", "assay": "Effects in combination with Thiobencarb and Bensulfuron Methyl on rice growth (Table 22)", "settings": "rate 8 g ai/ha; var. Koshihikari, applied 7 days after transplanting, rated 21 days after application", "source_text": "as §1"}, "[3]": {"test_system": "transplanted rice (var. Nihonbare)", "assay": "Crop tolerance of transplanted rice, combinations with Thiobencarb, Dimepiperate, Esprocarb and Dymron (Table 15)", "settings": "15 days after application", "source_text": "as §1"}, "transplanted rice": {"test_system": "transplanted rice", "assay": "Crop tolerance of transplanted rice (Table 7)", "settings": "rating 0-10", "source_text": "as §1"}}}
{"molecule": "COC(=O)c1ccccc1S(=O)(=O)NC(=O)Nc1nc(C)nc(OC)n1", "note": "[Compound 1, Methyl 2-[[[[(4-methoxy-6-methyl-1,3,5-triazin-2-yl)amino]carbonyl]amino]sulfonyl]benzoate]", "values": [{"measurement": "% CONTROL RICE", "setting": "rice [1]; 3 GAI/HA, evaluation 3", "result": 0, "unit": "%"}, {"measurement": "% CONTROL RICE", "setting": "rice [1]; 4 GAI/HA, evaluation 1", "result": 30, "unit": "%"}, {"measurement": "% CONTROL RICE", "setting": "rice [1]; 4 GAI/HA, evaluation 2", "result": 0, "unit": "%"}, {"measurement": "% CONTROL RICE", "setting": "rice [1]; 4 GAI/HA, evaluation 3", "result": 0, "unit": "%"}, {"measurement": "% CONTROL RICE", "setting": "rice [1]; 6 GAI/HA, evaluation 1", "result": 0, "unit": "%"}, {"measurement": "% CONTROL RICE", "setting": "rice [1]; 6 GAI/HA, evaluation 2", "result": 0, "unit": "%"}, {"measurement": "% CONTROL RICE", "setting": "rice [1]; 6 GAI/HA, evaluation 3", "result": 0, "unit": "%"}, {"measurement": "% CONTROL RICE", "setting": "rice [1]; 8 GAI/HA, evaluation 1", "result": 30, "unit": "%"}, {"measurement": "% CONTROL RICE", "setting": "rice [1]; 8 GAI/HA, evaluation 2", "result": 10, "unit": "%"}, {"measurement": "% CONTROL RICE", "setting": "rice [1]; 8 GAI/HA, evaluation 3", "result": 0, "unit": "%"}, {"measurement": "% CONTROL MV", "setting": "MV; 3 WAT, 2 GAI/HA, evaluation 1", "result": 80, "unit": "%"}, {"measurement": "% CONTROL MV", "setting": "MV; 3 WAT, 2 GAI/HA, evaluation 2", "result": 80, "unit": "%"}, {"measurement": "% CONTROL MV", "setting": "MV; 3 WAT, 2 GAI/HA, evaluation 3", "result": 100, "unit": "%"}, {"measurement": "% CONTROL MV", "setting": "MV; 3 WAT, 3 GAI/HA, evaluation 1", "result": 80, "unit": "%"}, {"measurement": "% CONTROL MV", "setting": "MV; 3 WAT, 3 GAI/HA, evaluation 2", "result": 100, "unit": "%"}, {"measurement": "% CONTROL MV", "setting": "MV; 3 WAT, 3 GAI/HA, evaluation 3", "result": 100, "unit": "%"}, {"measurement": "% CONTROL MV", "setting": "MV; 3 WAT, 4 GAI/HA, evaluation 1", "result": 100, "unit": "%"}, {"measurement": "% CONTROL MV", "setting": "MV; 3 WAT, 4 GAI/HA, evaluation 2", "result": 100, "unit": "%"}, {"measurement": "% CONTROL MV", "setting": "MV; 3 WAT, 4 GAI/HA, evaluation 3", "result": 100, "unit": "%"}, {"measurement": "% CONTROL MV", "setting": "MV; 3 WAT, 6 GAI/HA, evaluation 1", "result": 80, "unit": "%"}, {"measurement": "% CONTROL MV", "setting": "MV; 3 WAT, 6 GAI/HA, evaluation 2", "result": 100, "unit": "%"}, {"measurement": "% CONTROL MV", "setting": "MV; 3 WAT, 6 GAI/HA, evaluation 3", "result": 100, "unit": "%"}, {"measurement": "% CONTROL MV", "setting": "MV; 3 WAT, 8 GAI/HA, evaluation 1", "result": 100, "unit": "%"}, {"measurement": "% CONTROL MV", "setting": "MV; 3 WAT, 8 GAI/HA, evaluation 2", "result": 100, "unit": "%"}, {"measurement": "% CONTROL MV", "setting": "MV; 3 WAT, 8 GAI/HA, evaluation 3", "result": 100, "unit": "%"}, {"measurement": "% CONTROL MV", "setting": "MV; 4 WAT, 2 GAI/HA, evaluation 1", "result": 80, "unit": "%"}, {"measurement": "% CONTROL MV", "setting": "MV; 4 WAT, 2 GAI/HA, evaluation 2", "result": 100, "unit": "%"}, {"measurement": "% CONTROL MV", "setting": "MV; 4 WAT, 2 GAI/HA, evaluation 3", "result": 100, "unit": "%"}, {"measurement": "% CONTROL MV", "setting": "MV; 4 WAT, 3 GAI/HA, evaluation 1", "result": 80, "unit": "%"}, {"measurement": "% CONTROL MV", "setting": "MV; 4 WAT, 3 GAI/HA, evaluation 2", "result": 100, "unit": "%"}, {"measurement": "% CONTROL MV", "setting": "MV; 4 WAT, 3 GAI/HA, evaluation 3", "result": 100, "unit": "%"}, {"measurement": "% CONTROL MV", "setting": "MV; 4 WAT, 4 GAI/HA, evaluation 1", "result": 80, "unit": "%"}, {"measurement": "% CONTROL MV", "setting": "MV; 4 WAT, 4 GAI/HA, evaluation 2", "result": 100, "unit": "%"}, {"measurement": "% CONTROL MV", "setting": "MV; 4 WAT, 4 GAI/HA, evaluation 3", "result": 100, "unit": "%"}, {"measurement": "% CONTROL MV", "setting": "MV; 4 WAT, 6 GAI/HA, evaluation 1", "result": 80, "unit": "%"}, {"measurement": "% CONTROL MV", "setting": "MV; 4 WAT, 6 GAI/HA, evaluation 2", "result": 100, "unit": "%"}, {"measurement": "% CONTROL MV", "setting": "MV; 4 WAT, 6 GAI/HA, evaluation 3", "result": 100, "unit": "%"}, {"measurement": "% CONTROL MV", "setting": "MV; 4 WAT, 8 GAI/HA, evaluation 1", "result": 100, "unit": "%"}, {"measurement": "% CONTROL MV", "setting": "MV; 4 WAT, 8 GAI/HA, evaluation 2", "result": 100, "unit": "%"}, {"measurement": "% CONTROL MV", "setting": "MV; 4 WAT, 8 GAI/HA, evaluation 3", "result": 100, "unit": "%"}, {"measurement": "% CONTROL MV", "setting": "MV; 5 WAT, 2 GAI/HA, evaluation 1", "result": 80, "unit": "%"}, {"measurement": "% CONTROL MV", "setting": "MV; 5 WAT, 2 GAI/HA, evaluation 2", "result": 80, "unit": "%"}, {"measurement": "% CONTROL MV", "setting": "MV; 5 WAT, 2 GAI/HA, evaluation 3", "result": 80, "unit": "%"}, {"measurement": "% CONTROL MV", "setting": "MV; 5 WAT, 3 GAI/HA, evaluation 1", "result": 80, "unit": "%"}, {"measurement": "% CONTROL MV", "setting": "MV; 5 WAT, 3 GAI/HA, evaluation 2", "result": 100, "unit": "%"}, {"measurement": "% CONTROL MV", "setting": "MV; 5 WAT, 3 GAI/HA, evaluation 3", "result": 100, "unit": "%"}, {"measurement": "% CONTROL MV", "setting": "MV; 5 WAT, 4 GAI/HA, evaluation 1", "result": 80, "unit": "%"}, {"measurement": "% CONTROL MV", "setting": "MV; 5 WAT, 4 GAI/HA, evaluation 2", "result": 100, "unit": "%"}, {"measurement": "% CONTROL MV", "setting": "MV; 5 WAT, 4 GAI/HA, evaluation 3", "result": 100, "unit": "%"}, {"measurement": "% CONTROL MV", "setting": "MV; 5 WAT, 6 GAI/HA, evaluation 1", "result": 80, "unit": "%"}, {"measurement": "% CONTROL MV", "setting": "MV; 5 WAT, 6 GAI/HA, evaluation 2", "result": 100, "unit": "%"}, {"measurement": "% CONTROL MV", "setting": "MV; 5 WAT, 6 GAI/HA, evaluation 3", "result": 100, "unit": "%"}, {"measurement": "% CONTROL MV", "setting": "MV; 5 WAT, 8 GAI/HA, evaluation 1", "result": 100, "unit": "%"}, {"measurement": "% CONTROL MV", "setting": "MV; 5 WAT, 8 GAI/HA, evaluation 2", "result": 100, "unit": "%"}, {"measurement": "% CONTROL MV", "setting": "MV; 5 WAT, 8 GAI/HA, evaluation 3", "result": 100, "unit": "%"}, {"measurement": "CROP TOLERANCE DW (Dry weight relative to untreated check)", "setting": "rice [2]", "result": 92, "unit": "%"}, {"measurement": "CROP TOLERANCE PH (Plant height relative to untreated check)", "setting": "rice [2]", "result": 99, "unit": "%"}, {"measurement": "CROP TOLERANCE VA (Visual crop injury)", "setting": "rice [2]", "result": 0.5, "unit": "%"}, {"measurement": "CROP TOLERANCE (Nihonbare) DW, dry weight relative to untreated check", "setting": "[3]; 4 GAI/HA", "result": 107, "unit": "%"}, {"measurement": "CROP TOLERANCE (Nihonbare) PH, plant height relative to untreated check", "setting": "[3]; 4 GAI/HA", "result": 103, "unit": "%"}, {"measurement": "CROP TOLERANCE (Nihonbare) VA, visual crop injury", "setting": "[3]; 4 GAI/HA", "result": 0, "unit": "%"}, {"measurement": "CROP TOLERANCE (Nihonbare) DW, dry weight relative to untreated check", "setting": "[3]; 8 GAI/HA", "result": 83, "unit": "%"}, {"measurement": "CROP TOLERANCE (Nihonbare) PH, plant height relative to untreated check", "setting": "[3]; 8 GAI/HA", "result": 95, "unit": "%"}, {"measurement": "CROP TOLERANCE (Nihonbare) VA, visual crop injury", "setting": "[3]; 8 GAI/HA", "result": 3, "unit": "%"}, {"measurement": "CROP TOLERANCE", "setting": "transplanted rice; 3 GAI/HA, 1 WAA", "result": 0}, {"measurement": "CROP TOLERANCE", "setting": "transplanted rice; 3 GAI/HA, 2WAA", "result": 0}, {"measurement": "CROP TOLERANCE", "setting": "transplanted rice; 3 GAI/HA, 4WAA", "result": 0}, {"measurement": "CROP TOLERANCE", "setting": "transplanted rice; 3 GAI/HA, 6WAA", "result": 0}, {"measurement": "CROP TOLERANCE", "setting": "transplanted rice; 4 GAI/HA, 1 WAA", "result": 0}, {"measurement": "CROP TOLERANCE", "setting": "transplanted rice; 4 GAI/HA, 2WAA", "result": 0}, {"measurement": "CROP TOLERANCE", "setting": "transplanted rice; 4 GAI/HA, 4WAA", "result": 0}, {"measurement": "CROP TOLERANCE", "setting": "transplanted rice; 4 GAI/HA, 6WAA", "result": 0}, {"measurement": "CROP TOLERANCE", "setting": "transplanted rice; 6 GAI/HA, 1 WAA", "result": 1}, {"measurement": "CROP TOLERANCE", "setting": "transplanted rice; 6 GAI/HA, 2WAA", "result": 0}, {"measurement": "CROP TOLERANCE", "setting": "transplanted rice; 6 GAI/HA, 4WAA", "result": 0}, {"measurement": "CROP TOLERANCE", "setting": "transplanted rice; 6 GAI/HA, 6WAA", "result": 0}, {"measurement": "CROP TOLERANCE", "setting": "transplanted rice; 8 GAI/HA, 1 WAA", "result": 1}, {"measurement": "CROP TOLERANCE", "setting": "transplanted rice; 8 GAI/HA, 2WAA", "result": 1}, {"measurement": "CROP TOLERANCE", "setting": "transplanted rice; 8 GAI/HA, 4WAA", "result": 0}, {"measurement": "CROP TOLERANCE", "setting": "transplanted rice; 8 GAI/HA, 6WAA", "result": 0}]}
